According to ChEMBL document CHEMBL1201862, “PubChem BioAssay data set” (2004):
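In this assay, cells in 96-well plates receive the compound at five concentrations for 48 hours. Endpoints are linearly interpolated between the surrounding concentrations. The concentration for 50% growth inhibition is given as GI50.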 Activity calls are given as the source filed them. No stated cut-off is given here; in the data, active = GI50 up to about 1.1 µM and inactive = higher.

How the values were obtained:
Test in all cases: inhibition of tumour cell growth, NCI panel, 48 h
[1] = test system: A498
[2] = test system: SN12C
[3] = test system: MDA-MB-231
[4] = test system: DU-145
[5] = test system: HT-29
[6] = test system: LOX IMVI
[7] = test system: ACHN
[8] = test system: UACC-257
[9] = test system: UO-31
[10] = test system: SK-MEL-2
[11] = test system: HOP-62
[12] = test system: PC-3
[13] = test system: MOLT-4
[14] = test system: NCI-H460
[15] = test system: 786-0
[16] = test system: U-251
[17] = test system: RXF 393
[18] = test system: MDA-N
[19] = test system: M14
[20] = test system: SK-OV-3
[21] = test system: RPMI-8226
[22] = test system: OVCAR-8
[23] = test system: SK-MEL-5
[24] = test system: SNB-75
[25] = test system: NCI-H226
[26] = test system: SR
[27] = test system: NCI-H23
[28] = test system: MCF7
[29] = test system: K562
[30] = test system: CCRF-CEM
[31] = test system: SK-MEL-28
[32] = test system: COLO 205
[33] = test system: TK-10
[34] = test system: SF-295
[35] = test system: HCT-116
[36] = test system: OVCAR-3
[37] = test system: Malme-3M
[38] = test system: UACC-62
[39] = test system: SF-268
[40] = test system: EKVX
[41] = test system: IGROV-1
[42] = test system: HCT-15
[43] = test system: MDA-MB-435
[44] = test system: CAKI-1
[45] = test system: KM12
[46] = test system: SF-539
[47] = test system: SNB-19
[48] = test system: SW-620
[49] = test system: NCI/ADR-RES
[50] = test system: Hs-578T
[51] = test system: OVCAR-5
[52] = test system: BT-549
[53] = test system: HL-60
[54] = test system: T47D
[55] = test system: HCC 2998
[56] = test system: OVCAR-4
[57] = test system: A549

Compound: S=C(c1c[nH]c2ccccc12)N1CCN(Cc2ccccc2)CC1
- GI50 [1]: 19.2 µM (inactive)
- GI50 [2]: 16.5 µM (inactive)
- GI50 [3]: 17 µM (inactive)
- GI50 [4]: 17.5 µM (inactive)
- GI50 [5]: 16.5 µM (inactive)
- GI50 [6]: 15.7 µM (inactive)
- GI50 [7]: 25.5 µM (inactive)
- GI50 [8]: 20.7 µM (inactive)
- GI50 [9]: 6.61 µM (inactive)
- GI50 [10]: 18.9 µM (inactive)
- GI50 [11]: 18.5 µM (inactive)
- GI50 [12]: 15.7 µM (inactive)
- GI50 [13]: 16.6 µM (inactive)
- GI50 [14]: 25.2 µM (inactive)
- GI50 [15]: 15.7 µM (inactive)
- GI50 [16]: 19.5 µM (inactive)
- GI50 [17]: 16.1 µM (inactive)
- GI50 [18]: 15.6 µM (inactive)
- GI50 [19]: 14 µM (inactive)
- GI50 [20]: 20.7 µM (inactive)
- GI50 [21]: 13 µM (inactive)
- GI50 [22]: 19.1 µM (inactive)
- GI50 [23]: 12.1 µM (inactive)
- GI50 [24]: 15.5 µM (inactive)
- GI50 [25]: 15 µM (inactive)
- GI50 [26]: 20.2 µM (inactive)
- GI50 [27]: 19.3 µM (inactive)
- GI50 [28]: 22.2 µM (inactive)
- GI50 [29]: 27.1 µM (inactive)
- GI50 [30]: 27.2 µM (inactive)
- GI50 [31]: 17.3 µM (inactive)
- GI50 [32]: 16.5 µM (inactive)
- GI50 [33]: 26.4 µM (inactive)
- GI50 [34]: 14.8 µM (inactive)
- GI50 [35]: 15.7 µM (inactive)
- GI50 [36]: 14.4 µM (inactive)
- GI50 [37]: 19.5 µM (inactive)
- GI50 [38]: 15.6 µM (inactive)
- GI50 [39]: 19.5 µM (inactive)
- GI50 [40]: 18 µM (inactive)
- GI50 [41]: 12.7 µM (inactive)
- GI50 [42]: 13.6 µM
- GI50 [43]: 15.5 µM (inactive)
- GI50 [44]: 20.1 µM (inactive)
- GI50 [45]: 17.2 µM (inactive)
- GI50 [46]: 18.6 µM (inactive)
- GI50 [47]: 14.9 µM (inactive)
- GI50 [48]: 17.8 µM (inactive)
- GI50 [49]: 17 µM (inactive)
- GI50 [50]: 17.4 µM (inactive)
- GI50 [51]: 16.2 µM (inactive)
- GI50 [52]: 14.7 µM (inactive)
- GI50 [53]: 18.5 µM (inactive)

Compound: COc1cc(Cn2c3c(c4c(CN(C)C)c(O)ccc42)C(=O)c2ccccc2C3=O)cc(OC)c1
- GI50 [1]: 10.1 µM (inactive)
- GI50 [2]: 22.9 µM (inactive)
- GI50 [3]: 17.7 µM (inactive)
- GI50 [4]: 21.7 µM (inactive)
- GI50 [5]: 26.9 µM (inactive)
- GI50 [6]: 16.6 µM (inactive)
- GI50 [7]: 15.3 µM (inactive)
- GI50 [8]: 22.8 µM (inactive)
- GI50 [9]: 14.6 µM (inactive)
- GI50 [10]: 16.3 µM (inactive)
- GI50 [11]: 15.7 µM (inactive)
- GI50 [54]: 15.4 µM (inactive)
- GI50 [12]: 21 µM (inactive)
- GI50 [13]: 24.4 µM (inactive)
- GI50 [14]: 17.7 µM (inactive)
- GI50 [15]: 12.5 µM (inactive)
- GI50 [16]: 14.8 µM (inactive)
- GI50 [18]: 15.7 µM (inactive)
- GI50 [19]: 17.2 µM (inactive)
- GI50 [20]: 20.1 µM (inactive)
- GI50 [21]: 18.5 µM (inactive)
- GI50 [55]: 17.9 µM (inactive)
- GI50 [22]: 14.6 µM (inactive)
- GI50 [23]: 11.9 µM (inactive)
- GI50 [24]: 0.414 µM (active)
- GI50 [25]: 33.2 µM (inactive)
- GI50 [26]: 10.3 µM (inactive)
- GI50 [27]: 15.7 µM (inactive)
- GI50 [28]: 15.9 µM (inactive)
- GI50 [56]: 13.9 µM (inactive)
- GI50 [29]: 14 µM (inactive)
- GI50 [30]: 24.3 µM (inactive)
- GI50 [31]: 15.8 µM (inactive)
- GI50 [32]: 25.5 µM (inactive)
- GI50 [33]: 28.7 µM (inactive)
- GI50 [34]: 21.5 µM (inactive)
- GI50 [35]: 13.6 µM (inactive)
- GI50 [36]: 24.2 µM (inactive)
- GI50 [37]: 23.2 µM (inactive)
- GI50 [38]: 23.1 µM (inactive)
- GI50 [39]: 14.8 µM (inactive)
- GI50 [57]: 15.1 µM (inactive)
- GI50 [40]: 20 µM (inactive)
- GI50 [42]: 14 µM
- GI50 [43]: 18.1 µM (inactive)
- GI50 [44]: 13 µM (inactive)
- GI50 [45]: 26.4 µM (inactive)
- GI50 [46]: 16.3 µM (inactive)
- GI50 [47]: 18.7 µM (inactive)
- GI50 [48]: 18.7 µM (inactive)
- GI50 [49]: 17.6 µM (inactive)
- GI50 [50]: 19.1 µM (inactive)
- GI50 [51]: 21.7 µM (inactive)
- GI50 [53]: 22.4 µM (inactive)
